Tests used:
[1] = stability of cyanidin in solution; type: physicochemical
[2] = solubility of cyanidin in water; type: physicochemical

## Oc1cc(O)c2cc(O)c(-c3ccc(O)c(O)c3)[o+]c2c1 [cyanidin]
[1]; in water at 49 mg/L
  stability in water: degrade within minutes
[1]; pH of the solution
  pH of highest stability: < 5.0
[2]
  solubility: 49 µg/mL

From patent publication US20240191273A1, “ANTHOCYANIN BIOPRODUCTION IN A CELL-FREE MANUFACTURING SYSTEM” (DEBUT BIOTECHNOLOGY, INC., priority 2021, published 2024)
